A word on the microsomal CLint: it is the rate of metabolic loss divided by the concentration. What is called half-life is the time needed for the level to fall by half in the phase considered.

The text below walks through data of US20170333515A1, “COMPOSITIONS AND METHODS FOR ENHANCING THE METABOLIC ACTIVITY OR STABILITY OF CURCUMIN” (priority 2015, published 2017).

Data set [1] can be described thus: in vitro. The procedure:
The objective of this study was to determine the stability of curcumin in human liver microsomes in the absence and presence of xanthohumol at a concentration of 10 μM, which is 10 fold higher than the previous study.
The objective of this study was to determine the stability of curcumin in human liver microsomes in the absence and presence of 10 μM xanthohumol.
(§1) Mixed-gender human liver microsomes (Lot #1210347) were purchased from XenoTech. The reaction mixture, minus cofactors, was prepared as described below. The test article was added into the reaction mixture at a final concentration of 1 μM. A second experiment was also performed with 10 μM xanthohumol also present in the reaction mixture. The control compounds, testosterone and 7-hydroxycoumarin (7-HC), were run simultaneously with the test article in separate reactions. An aliquot of the reaction mixture (without cofactors) was equilibrated in a shaking water bath at 37° C. for 3 minutes. The reaction was initiated by the addition of cofactors, and the mixture was incubated in a shaking water bath at 37° C. Aliquots (100 μL) were withdrawn at 0, 10, 20, 30, and 60 minutes for the test article and 0, 10, 30, and 60 minutes for testosterone and 7-HC. All samples were immediately combined with 400 μL of ice-cold 50/50 acetonitrile/H2O containing 0.1% formic acid and internal standard to terminate the reaction. The samples were then mixed and centrifuged to precipitate proteins. All samples were assayed by LC-MS/MS using electrospray ionization. Analytical conditions are outlined in Appendix 1. The peak area response ratio (PARR) to internal standard was compared to the PARR at time 0 to determine the percent remaining at each time point. Half-lives were calculated using GraphPad software, fitting to a single-phase exponential decay equation.

A short description of data set [2]: in vitro. As to conditions: both. The protocol:
The objective of this study was to determine the stability of curcumin in human liver microsomes in the absence and presence of xanthohumol at a concentration of 1 μM.
as §1, with “μM.” for “μM. A”, “with 1” for “with 10”

Setting [3] is: both, human, microsomes, Half-life.

As to `O=c1ccc2ccc(O)cc2o1` [7-HC, 7-hydroxycoumarin], the microsomal CLint amounted to 120 µL/min/mg in “in vitro [1]” (both, human, microsomes, CLint) and 136 µL/min/mg in “in vitro [2]” (human, microsomes). Further, the half-life in “in vitro [1]” (setting [3]) stood at 12 min; in the data set “in vitro [2]” (human, microsomes), 10 min.

Turning to `COc1cc(C=CC(=O)CC(=O)C=Cc2ccc(O)c(OC)c2)ccc1O` [Curcumin, 1,7-Bis(4-hydroxy-3-methoxyphenyl)-1,6-heptadiene-3,5-dione], the half-life in “in vitro [1]” (both, human, microsomes, 1 μM) is given as < 10 min. The microsomal CLint at 1 μM is > 139 µL/min/mg in the data set “in vitro [1]” (both, human, microsomes, CLint); 296 µL/min/mg in the data set “in vitro [1]” (both, human, microsomes, CLint (value in parentheses)); 313 µL/min/mg in the data set “in vitro [2]” (human, microsomes). The half-life at 1 μM is < 10 min in “in vitro [1]” (setting [3]); 4.7 min in “in vitro [1]” (both, human, microsomes, Half-life (value in parentheses)); 4.4 min in the data set “in vitro [2]” (human, microsomes).

Turning to `C[C@]12CC[C@H]3[C@@H](CCC4=CC(=O)CC[C@@]43C)[C@@H]1CC[C@@H]2O` [Testosterone, testosterone], the microsomal CLint turned out to be 57.7 µL/min/mg in the data set “in vitro [1]” (both, human, microsomes) and 74 µL/min/mg in the data set “in vitro [2]”. Moreover, the half-life in the data set “in vitro [1]” (control compounds, human liver microsomes, separate reactions, Example 4) was 24 min.
